# Test results reported in ChEMBL document CHEMBL1201862, “PubChem BioAssay data set” (2004).
#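 Assay format: 96-well plates, 48-hour exposure. GI50: concentration for 50% inhibition of growth.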 Activity calls are given as the source filed them. Cut-off read from the data, not from the text of the source: active = GI50 up to about 1.1 µM and inactive = higher.
# Legend:
# Test in all cases: DTP human tumour cell line panel, 48 h
# SK-MEL-28 = system: SK-MEL-28
# SF-268 = system: SF-268
# OVCAR-4 = system: OVCAR-4
# SK-MEL-5 = system: SK-MEL-5
# NCI-H23 = system: NCI-H23
# IGROV-1 = system: IGROV-1
# K562 = system: K562
# SNB-19 = system: SNB-19
# HOP-62 = system: HOP-62
# NCI-H522 = system: NCI-H522
# M14 = system: M14
# SF-539 = system: SF-539
# SR = system: SR
# OVCAR-3 = system: OVCAR-3
# A498 = system: A498
# A549 = system: A549
# HCT-15 = system: HCT-15
Structure (SMILES),GI50 (SK-MEL-28),GI50 (SF-268),GI50 (OVCAR-4),GI50 (SK-MEL-5),GI50 (NCI-H23),GI50 (IGROV-1),GI50 (K562),GI50 (SNB-19),GI50 (HOP-62),GI50 (NCI-H522),GI50 (M14),GI50 (SF-539),GI50 (SR),GI50 (OVCAR-3),GI50 (A498),GI50 (A549),GI50 (HCT-15) [µM]
CCC(Oc1ccc(OC)c2c1C(=O)CCC2)C(=O)O (stereo not drawn),> 100 µM (inactive),> 100 µM (inactive),> 100 µM (inactive),> 100 µM (inactive),> 100 µM (inactive),> 100 µM (inactive),> 100 µM (inactive),> 100 µM (inactive),> 100 µM (inactive),> 100 µM (inactive),> 100 µM (inactive),> 100 µM (inactive),> 100 µM (inactive),> 100 µM (inactive),> 100 µM (inactive),> 100 µM (inactive),> 100
O=Cc1ccccc1OCCOc1cc(OCCOc2ccccc2C=O)c(OCCOc2ccccc2C=O)cc1OCCOc1ccccc1C=O,> 100 µM (inactive),52.1 µM (inactive),39.9 µM (inactive),> 100 µM (inactive),56.5 µM (inactive),> 62.8 µM (inactive),50.4 µM (inactive),> 31.6 µM (inactive),70.3 µM (inactive),> 86.9 µM (inactive),> 83.9 µM (inactive),> 44.5 µM (inactive),39.8 µM (inactive),> 100 µM (inactive),> 100 µM (inactive),> 100 µM (inactive),> 66.2
Oc1nnc(CNc2ccc(Cl)cc2Cl)c2ccccc12,22.3 µM (inactive),19.9 µM (inactive),16.5 µM (inactive),19.7 µM (inactive),–,25.5 µM (inactive),44.9 µM (inactive),28.1 µM (inactive),20.5 µM (inactive),18.2 µM (inactive),32 µM (inactive),17.1 µM (inactive),32.7 µM (inactive),18.9 µM (inactive),8.24 µM (inactive),17.7 µM (inactive),20.1
Cc1nc(N)nc(CCC(=O)Nc2cccc(C(F)(F)F)c2)c1-c1ccc(Cl)cc1,> 100 µM (inactive),> 100 µM (inactive),> 100 µM (inactive),> 100 µM (inactive),> 100 µM (inactive),> 100 µM (inactive),> 100 µM (inactive),> 100 µM (inactive),> 100 µM (inactive),> 100 µM (inactive),> 100 µM (inactive),> 100 µM (inactive),21.6 µM (inactive),> 100 µM (inactive),> 100 µM (inactive),> 100 µM (inactive),> 100
COc1ccc(/C=C/C(=O)C(C)C)cc1,> 100 µM (inactive),42.3 µM (inactive),47.9 µM (inactive),48.1 µM (inactive),32.6 µM (inactive),> 100 µM (inactive),32.8 µM (inactive),46.7 µM (inactive),43.8 µM (inactive),20.6 µM (inactive),28.3 µM (inactive),46.2 µM (inactive),25.2 µM (inactive),25.9 µM (inactive),35.5 µM (inactive),69.2 µM (inactive),27.2
O=S1(=O)COc2ccccc2-c2ncncc21,> 100 µM (inactive),> 100 µM (inactive),> 100 µM (inactive),> 100 µM (inactive),> 100 µM (inactive),> 100 µM (inactive),> 100 µM (inactive),> 100 µM (inactive),> 100 µM (inactive),> 100 µM (inactive),> 100 µM (inactive),> 100 µM (inactive),> 100 µM (inactive),> 100 µM (inactive),> 100 µM (inactive),> 100 µM (inactive),> 100
CN(C)/C=N\c1ccn(CCO)c(=O)n1,> 100 µM (inactive),> 100 µM (inactive),> 100 µM (inactive),> 100 µM (inactive),> 100 µM (inactive),> 100 µM (inactive),> 100 µM (inactive),> 100 µM (inactive),> 100 µM (inactive),> 100 µM (inactive),> 100 µM (inactive),> 100 µM (inactive),> 100 µM (inactive),> 100 µM (inactive),> 100 µM (inactive),> 100 µM (inactive),> 100
